According to patent US20230404985A1, “METHODS OF TREATING TUMORS AND CANCERS HAVING DYSREGULATED WNT SIGNALING PATHWAYS” (ICAHN SCHOOL OF MEDICINE AT MOUNT SINAI, priority 2020, published 2023):

Columns and labels:
EZH2 = experiment: Cellular fractionation, EZH2 localization in MYC-CTNNB1 tumor organoids; assay type: cell-based, mouse; conditions: WNTinib 1 μM, sorafenib 10 μM, 24 hours
Method: Cells were spun down again at 500 g, 4° C., for 5 minutes in ultra-low attachment 1.5 mL Eppendorf tubes. Cells were resuspended in 100 μL of lysis buffer 1 (50 mM HEPES-KOH, pH 7.5, 140 mM NaCl, 1 mM EDTA, 10% glycerol, 0.5% NP-40, 0.25% Triton X-100, lx protease/phosphatase inhibitors) and agitated at 4° C. for 10 minutes. Lysate was spun at 1,350 g, 4° C., for 5 minutes. The supernatant was saved for the cytoplasmic fraction. The pellet was resuspended in 100 μL of lysis buffer 2 (10 mM Tris-HCl, pH 8.0, 200 mM NaCl, 1 mM EDTA, 0.5 mM EGTA, lx protease/phosphatase inhibitors) and agitated at room temperature for 10 minutes. The supernatant was saved for the nuclear fraction. The pellet was resuspended in 35 μL of lysis buffer 3 (10 mM Tris-HCl, pH 8.0, 100 mM NaCl, 1 mM EDTA, 0.5 mM EGTA, 0.1% Na-Deoxycholate, 0.5% N-lauroylsarcosine, lx protease/phosphatase inhibitors) and agitated at 4° C. for 10 minutes. 1/10 volume of 10% Triton X-100 was added to the lysate, which was spun down at 20,000 g, 4° C., for 10 minutes. Supernatant was taken for chromatin fraction. […] SDS-PAGE was performed using standard procedures.
Next, EZH2 localization in WNTinib sensitive MYC-CTNNB1 and insensitive MYC-Tp53 tumor organoids was investigated. EZH2 localized diffusively in the MYC-CTNNB1 model but was primarily nuclear insoluble in the MYC-Tp53 model (FIG. 6E; lanes 7-9, left and right panels).

[1] = tested on: MYC-Tp53 tumor organoid allografts; experiment: MYC-Tp53 tumor organoid allografts; assay type: in vivo, C57BL/6J mice; conditions: 30 mg/kg daily oral gavage
Method: 300,000 cells per allograft were prepared in 8 mg/mL Matrigel. 6-8-week-old C57BL/6J mice were shaved the day prior to injection. A 26^5/8-gauge needle was used to implant organoids into the flank in 100 μL Matrigel. Tumor allografts were measured daily with calipers, and upon an average volumetric measurement of 100 mm^3, animals were randomized and drug dosing was started. Drugs were dosed daily at 30 mg/kg via oral gavage. Tumor allografts were also measured daily.
MYC-CTNNB1 tumor organoids were engrafted into C57BL/6 mice and treatment was started when tumor volume reached 100 mm^3.

[2] = Single dose oral pharmacokinetics; assay type: in vivo, BALB/c mice; conditions: for half-life: 20 mg/kg oral gavage
Method: All animal experiments were carried out in accordance with ethical guidelines and approved by the Institutional Animal Care and Use Committee (IACUC), Biological Resource Center (BRC) A*STAR. BALB/c mice were purchased from InVivos, Singapore and fed with a standard laboratory diet and distilled water ad libitum. The animals were kept on a 12-hour light/dark cycle at 22±2° C. in individually ventilated caging systems with 50-65% humidity in the Biological Resource Centre, A*Star, Singapore. For single dose oral pharmacokinetic studies, female BALB/c mice (n=8, 6-8 weeks old) were used. The animals were fasted overnight and administered with a single oral dose (20 mg/kg) of WNTinib as prepared above. Blood samples were collected at pre-determined time points [0 (pre-dosing), 0.5, 1, 2, 4, 8, 12, and 24 hours] through the retro-orbital plexus (using micro hematocrit capillary tubes) into microvette CB300 K2E tubes. A sparse sampling technique (four mice per time point) was adopted during blood collection so that blood loss from each mouse was kept less than 10% of the total blood volume. Plasma was harvested by centrifuging the blood using a Sorvall Legend Micro 21R centrifuge (Thermo Scientific) at 3000 rpm for 15 minutes and stored at […] until further analysis. Mice were allowed to access feed 2 hours post-dosing and water ad libitum. Pharmacokinetic analysis of these compounds was performed using a Shimadzu UFLC prominence system (equipped with degasser (DGU-20A5), isopump (LC-20AD), autosampler (SIL-20AC HT) and column oven (CTO-20AC)) connected to a Sciex 4000 Q-Trap LC/MS/MS with heated electrospray ionization source. The primary stock solution (1.0 mg/mL) of WNTinib and Carbamazepine (Internal Standard, IS) were prepared in DMSO and used for subsequent dilutions. Required secondary and working stocks were prepared from the primary stocks using acetonitrile:water (75:25, v/v) as a diluent for the calibration curve (CC) and quality control (QC) studies. For the pharmacokinetic analysis, the mouse plasma was mixed with carbamazepine (50 ng/ml, final concentration) and extraction solvent (70% acetonitrile and 0.1% formic acid) and shaken for 10 minutes. After vigorous shaking, the samples were centrifuged at 14000 rpm for 20 minutes and the supernatant was collected. Chromatographic resolution of compound and the IS was achieved by injecting 1-2 μL of the processed sample on a Luna C18 100 Å column (50×2.0 mm, 5 μm; Phenomenex, USA) maintained at room temperature using a mobile phase consisting of 5 mM ammonium formate (buffered with 0.1% formic acid) and acetonitrile delivered at a flow-rate of 0.4 mL/minute. Quantitation was carried out using the multiple reaction monitoring of the transitions.

pT367 EZH2 and pT71 ATF2 = conditions: WNTinib 1 μM, sorafenib 10 μM; for temporal inhibition of pT367 EZH2 and pT71 ATF2: MYC-CTNNB1 organoids, SB202190 10 μM, 48 hours time course; for modulation of pT367 EZH2 in the four tumor organoid models: 48 hours
Method: Tumor organoids were grown in 24 well plates and were collected in Cell Recovery Solution (Corning) after drug treatment. Tumor organoids were left to rotate at 4° C. for one hour in order to dissolve the Matrigel. Tumor organoids were spun down at 300 g at 4° C. for 5 minutes. Pellets were lysed in 2× Laemmli buffer (+4% 2-mercaptoethanol) by heating at 95° C. for 10 minutes followed by 5 seconds of sonication. SDS-PAGE was run using standard procedures.

SMILES | nuclear partitioning of EZH2 (EZH2) | pT367 EZH2 in the cytoplasm (EZH2) | activity in MYC-Tp53 allografts [1] | detectable quantities of drug in blood plasma, time post dosing ([2]; 20 mg/kg oral) | half-life ([2]; female, BALB/c, mouse, plasma) | concentration at 24 h ([2]; female, BALB/c, mouse, plasma, 20 mg/kg oral, read-out: concentration 24 hours after oral dosing) | temporal inhibition of pT367 EZH2 and pT71 ATF2 (pT367 EZH2 and pT71 ATF2) | modulation of pT367 EZH2 in the four tumor organoid models (pT367 EZH2 and pT71 ATF2)
CNC(=O)c1cc(Oc2ccc(NC(=O)Nc3ccc(C(F)(F)C(F)(F)F)cc3)c(F)c2)ccn1 [WNTinib, 4-(3-fluoro-4-(3-(4-(perfluoroethyl)phenyl)ureido)phenoxy)-N-methylpicolinamide] | increase in nuclear partitioning of EZH2 | ablated | inactive | up to 72 hours | 9.38 h | 7 µM | delayed, but durable inhibition up to 48 hours | inhibited by WNTinib in the MYC-CTNNB1 model
CNC(=O)c1cc(Oc2ccc(NC(=O)Nc3ccc(Cl)c(C(F)(F)F)c3)cc2)ccn1 [sorafenib, reference compound] | did not impact phosphorylation or nuclear to cytoplasmic ratios of EZH2 | did not impact phosphorylation | better activity | – | 8 h | – | transient inhibition | induced pT367 across several organoid models
